Results from patent US4933348A, “Heterocyclic compounds” (priority 1985, dated 1990).

Tests used:
[1] = system: SRS-A-induced contraction of guinea-pig ileum; assay: Inhibition of SRS-A-induced contraction of isolated guinea-pig ileum; set-up: species or system guinea-pig (male Hartley); conditions: submaximal concentration of SRS-A (derived from guinea pig lung), incubation 20 minutes, 37° C., read-out: IC 50 (M), Ileum, Anti-SRS-A
Experimental: (§1) (1) Inhibition of SRS-A- and LTD4 -induced contraction of guinea-pig ileum and trachea
(§2) Methods: Male Hartley guinea-pigs, weighing 500 to 700 g were sacrificed by a blow on the head The ileum and tracheal strips prepared according to the method of Constantine (Constantine, J. W., J. Pharm Pharmacol., 17, 384 (1965)) were suspended with 1.0 g tension in an organ bath containing 10 ml of Tyrode solution equilibrated with a mixture of 95% O2 and 5% CO2 at 37° C. The tissues were equilibrated for 60 minutes; during this period the Tyrode solution was replaced every 15 minutes and the loading tension was adjusted to 1.0 g. The developed tension of the tissues was measured isometrically with a strain gauge transducer, and recorded on a Recticorder. Both the contractile response of the ileum to submaximal concentration of SRS-A (derived from guinea pig lung) and tracheal response to 10^-8 M LTD4 were recorded in the absence and then in the presence of various concentrations of test compounds. The incubation time of the compounds was 20 minutes.

[2] = system: LTD4-induced contraction of guinea-pig trachea; assay: Inhibition of LTD4-induced contraction of isolated guinea-pig trachea; set-up: species or system guinea-pig (male Hartley); conditions: 10^-8 M LTD4; for inhibition of the contractions induced by LTD4 (in words): isolated guinea pig trachea; for IC50: isolated guinea-pig trachea, incubation 20 minutes, 37° C., read-out: IC 50 (M), Trachea, Anti-LTD4
Experimental: as §1, §2

[3] = system: LTD4-enhanced vascular permeability; assay: Inhibition of LTD4-enhanced vascular permeability in guinea-pig; type: in vivo, guinea-pig (male Hartley); conditions: for ED50: Cavia porcellus, po, 30 minutes before LTD4 injection (5 ng intradermal); for anti-leukotriene effect by oral route (in words) / inhibition of LTD4-enhanced vascular permeability (in words): p.o.; for inhibition of LTD4-enhanced vascular permeability (in words): 30 minutes before LTD4 injection
Experimental: (2) Inhibition of LTD4 -enhanced vascular permeability in guinea-pig
Method: Male Hartley quinea-pigs weighing 270 to 305 g, starved for 16 hours, were intradermally injected 5 ng LTD4 in a volume of 0.1 ml into two sites on the shaved back. In addition, 0.1 ml of vehicle was injected intradermally in each animal to see non-specific irritation. One ml of saline containing 1% Evans blue was intravenously injected 2 minutes before LTD4 injection. Animals were sacrificed 30 minutes after LTD4 injection. The leaked dye at the site of LTD4 or vehicle injection was extracted according to the method of Harada et al. (Harada, M. et al., J. Pharm. Pharmacol., 23, 218 (1971)) and measured photometrically at 620 nm. The LTD4 -induced skin reaction was expressed as a difference in the amount of dye between LTD4 and vehicle. Test compounds were orally administered 30 minutes before LTD4 injection.

SMILES	IC50 [1]	IC50 [2]	inhibition of the contractions induced by LTD4 (in words) [2]	ED50 [3]	anti-leukotriene effect by oral route (in words) [3]	inhibition of LTD4-enhanced vascular permeability (in words) [3]
CCCc1c(CSc2nnc(NC(=O)CCC(=O)O)s2)ccc(C(C)=O)c1O [Example 24, 4-[[5-[(4-acetyl-3-hydroxy-2-propylbenzyl)thio]-1,3,4-thiadiazol-2-yl]amino]-4-oxobutyric acid]	3.3e-09 M	–	–	–	–	–
CCCc1c(CSc2nccc(O)n2)ccc(C(C)=O)c1O [Example 14, 2-[(4-acetyl-3-hydroxy-2-propylbenzyl)thio]-4-hydroxypyrimidine]	5e-08 M	–	–	–	–	–
CCCc1c(CSc2nnc(SCCCC(=O)O)s2)ccc(C(C)=O)c1O [Example 4, 4-[[5-[(4-acetyl-3-hydroxy-2-propylbenzyl)thio]-1,3,4-thiadiazol-2-yl]thio]butyric acid]	4.1e-09 M	–	–	–	–	–
CCCc1c(CSc2nnc(NC(=O)C(=O)O)s2)ccc(C(C)=O)c1O [Example 22, [5-[(4-acetyl-3-hydroxy-2-propylbenzyl)thio]-1,3,4-thiadiazol-2-yl]oxamidic acid]	2.2e-08 M	–	–	–	–	–
CCCc1c(CSc2nnc(SCc3ccc(OC(C)C(=O)O)cc3)s2)ccc(C(C)=O)c1O (stereo not shown) [Example 34, 2-[p-[[[5-[(4-acetyl-3-hydroxy-2-propylbenzyl)thio]-1,3,4-thiadiazol-2-yl]thio]methyl]phenoxy]propionic acid]	–	–	–	4.2 mg/kg	–	–
CCCc1c(CSc2nnc(SCCCCCC(=O)O)s2)ccc(C(C)=O)c1O [Example 12, 6-[[5-[(4-acetyl-3-hydroxy-2-propylbenzyl)thio]-1,3,4-thiadiazol-2-yl]thio]hexanoic acid]	4e-09 M	–	–	–	–	–
CCCc1c(CSc2nnc(SCCCCC(=O)O)s2)ccc(C(C)=O)c1O [Example 11, 5-[[5-[(4-acetyl-3-hydroxy-2-propylbenzyl)thio]-1,3,4-thiadiazol-2-yl]thio]valeric acid]	9.1e-09 M	–	–	–	–	–
CCCc1c(CSc2nnc(SCC(=O)O)s2)ccc(C(C)=O)c1O [Example 2, [[5-[(4-acetyl-3-hydroxy-2-propylbenzyl)thio]-1,3,4-thiadiazol-2-yl]thio]-acetic acid]	4.2e-08 M	4e-08 M	potently inhibited	11.3 mg/kg	potent anti-leukotriene effect	dose-dependently inhibited
CCCc1c(CSc2nnc(SCCCCCCC(=O)O)s2)ccc(C(C)=O)c1O [Example 13, 7-[[5-[(4-acetyl-3-hydroxy-2-propylbenzyl)thio]-1,3,4-thiadiazol-2-yl]thio]heptanoic acid]	2.1e-08 M	–	–	–	–	–
CCCc1c(CSc2nnc(SCCCCCC(=O)OCC)s2)ccc(C(C)=O)c1O [Example 10, ethyl 6-[[5-[(4-acetyl-3-hydroxy-2-propylbenzyl)thio]-1,3,4-thiadiazol-2-yl]thio]hexanate]	5.1e-08 M	–	–	–	–	–

Second part, led by results:

IC50 [1]	IC50 [2]	SMILES	inhibition of the contractions induced by LTD4 (in words) [2]	ED50 [3]	anti-leukotriene effect by oral route (in words) [3]	inhibition of LTD4-enhanced vascular permeability (in words) [3]
1.1e-08 M	7.8e-09 M	CCCc1c(CSc2nnc(SCCC[S+]([O-])CC(=O)O)s2)ccc(C(C)=O)c1O (stereo not shown) [Example 35, [3-[[5-[(4-acetyl-3-hydroxy-2-propylbenzyl)thio]-1,3,4-thiadiazol-2-yl]thio]propylsulfinyl]acetic acid]	potently inhibited	–	–	–
3.6e-09 M	1.1e-08 M	CCCc1c(CSc2nnc(SCc3ccc(C(=O)O)cc3)s2)ccc(C(C)=O)c1O [Example 37, p-[[5-[(4-acetyl-3-hydroxy-2-propylbenzyl)thio]-1,3,4-thiadiazol-2-yl]thiomethyl]benzoic acid]	potently inhibited	7 mg/kg	potent anti-leukotriene effect	dose-dependently inhibited
4.5e-08 M	1.9e-07 M	CCCc1c(CSc2snc(O)c2C(=O)O)ccc(C(C)=O)c1O [Example 44, 5-[(4-acetyl-3-hydroxy-2-propylbenzyl)thio]-3-hydroxy-4-isothiazolecarboxylic acid]	potently inhibited	–	–	–
3.1e-08 M	–	CCCc1c(CSc2nnc(SCc3ccc(CCC(=O)O)cc3)s2)ccc(C(C)=O)c1O [Example 46, 3-[p-[[[5-[(4-acetyl-3-hydroxy-2-propylbenzyl)thio]-1,3,4-thiadiazol-2-yl]thio]methyl]phenyl]propionic acid]	–	–	–	–
2.9e-10 M	5.4e-08 M	CCCc1c(CSc2nnc(SCc3ccc(OCC(=O)O)cc3)s2)ccc(C(C)=O)c1O [Example 33, [p-[[[5-[(4-acetyl-3-hydroxy-2-propylbenzyl)thio]-1,3,4-thiadiazol-2-yl]thio]methyl]phenoxy]acetic acid]	potently inhibited	–	–	–
4.7e-09 M	3.8e-09 M	CCCc1c(CSc2nnc(SCc3ccc(CSCC(=O)O)cc3)s2)ccc(C(C)=O)c1O [Example 43, [[p-[[[5-[(4-acetyl-3-hydroxy-2-propylbenzyl)thio]-1,3,4-thiadiazol-2-yl]thio]methyl]benzyl]thio]acetic acid]	potently inhibited	–	–	–
1.1e-09 M	2.9e-09 M	CCCc1c(CSc2nnc(SCCCS(=O)(=O)CC(=O)O)s2)ccc(C(C)=O)c1O [Example 36, [3-[[5-[(4-acetyl-3-hydroxy-2-propylbenzyl)thio]-1,3,4-thiadiazol-2-yl]thio]propylsulfonyl]acetic acid]	potently inhibited	–	–	–
1.5e-10 M	3e-09 M	CCCc1c(CSc2nnc(SCCCSCC(=O)O)s2)ccc(C(C)=O)c1O [Example 32, [[3-[[5-[(4-acetyl-3-hydroxy-2-propylbenzyl)thio]-1,3,4-thiadiazol-2-yl]thio]propyl]thio]acetic acid]	potently inhibited	–	–	–
